Laboratory results reported in patent US10961279B2 (priority 2011, dated 2021).

System: CTLL-2 cells
Type: cell-based

Row | Sequence | effect of the dimeric peptides on proliferation of CTLL-2 cells (synthesis of new DNA)
1 | GLFAGFIENGWEGCGGEKEKEK [non-IS #2] | no significant effect
2 | GLFGAAGFIENGWEGCGGEKEKEK [non-IS #1] | much less
